# The source made the active and inactive calls. The rule behind the calls is not given here.
# What was measured:
# [1] = test system: TK6; test: Genotoxicity in p53-competent human TK6 cells in presence of Sprague-Dawley rat S9 fraction by GADD45alpha GFP reporter assay; type: toxicity, cell-based
# [2] = test system: Salmonella typhimurium; test: Mutagenicity in Salmonella typhimurium TA98 in presence of rat S9 fraction by Ames test; type: toxicity, organism-based; details: salmonella enterica subsp. enterica serovar typhimurium
# [3] = test system: Salmonella typhimurium; test: Mutagenicity in Salmonella typhimurium TA100 in absence of rat S9 fraction by Ames test; type: toxicity, organism-based; details: salmonella enterica subsp. enterica serovar typhimurium
# [4] = Fraction unbound in human plasma at 5 uM after 4 hrs by LC-MS/MS analysis; type: ADME, cell-free
# [5] = biological target: T1, Disintegrin and metalloproteinase domain-containing protein 10 (Homo sapiens, UniProt O14672); test: Inhibition of ADAM10 (unknown origin)
# T1 sequence (O14672 whole entry): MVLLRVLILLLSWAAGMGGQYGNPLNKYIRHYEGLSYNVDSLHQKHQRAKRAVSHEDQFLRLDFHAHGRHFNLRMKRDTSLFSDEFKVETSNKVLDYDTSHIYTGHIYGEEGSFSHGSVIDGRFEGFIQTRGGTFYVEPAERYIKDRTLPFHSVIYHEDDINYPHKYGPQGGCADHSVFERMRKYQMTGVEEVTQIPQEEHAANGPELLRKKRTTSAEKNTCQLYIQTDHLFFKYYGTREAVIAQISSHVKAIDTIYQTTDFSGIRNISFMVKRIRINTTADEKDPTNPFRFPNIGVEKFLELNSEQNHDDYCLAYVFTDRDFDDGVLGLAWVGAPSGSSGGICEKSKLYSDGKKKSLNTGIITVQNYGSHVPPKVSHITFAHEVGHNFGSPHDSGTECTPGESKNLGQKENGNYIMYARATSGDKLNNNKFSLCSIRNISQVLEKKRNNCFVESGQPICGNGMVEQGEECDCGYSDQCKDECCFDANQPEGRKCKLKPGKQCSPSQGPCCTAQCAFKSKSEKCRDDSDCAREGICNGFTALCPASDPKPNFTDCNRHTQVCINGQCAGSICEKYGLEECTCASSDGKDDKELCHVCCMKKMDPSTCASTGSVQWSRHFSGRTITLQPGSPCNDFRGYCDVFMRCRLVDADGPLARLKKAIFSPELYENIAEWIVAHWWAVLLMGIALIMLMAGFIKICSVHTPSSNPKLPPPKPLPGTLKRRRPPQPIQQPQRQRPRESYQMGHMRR
# [6] = test system: TK6; test: Genotoxicity in p53-competent human TK6 cells in absence of Sprague-Dawley rat S9 fraction by GADD45alpha GFP reporter assay; type: toxicity, cell-based
# [7] = test system: Mus musculus; test: Antiinflammatory activity in topically applied oxazolone-induced chronic skin inflammation hairless SKH1 mouse model assessed as decrease in epidermis thickening applied topically for 10 days in combination with oxazolone; type: functional, organism-based
# [8] = test system: Mus musculus; test: Antiinflammatory activity in topically applied oxazolone-induced chronic skin inflammation hairless SKH1 mouse model assessed as decrease in TNFalpha secretion applied topically for 10 days in combination with oxazolone; type: functional, organism-based
# [9] = test system: Mus musculus; test: Antiinflammatory activity in topically applied oxazolone-induced chronic skin inflammation hairless SKH1 mouse model assessed as decrease in skin lesions applied topically for 10 days in combination with oxazolone; type: functional, organism-based
Compound,Activity [1],Activity [2],Activity [3],"fraction unbound at 4 h, 5 µM [4]",IC50 [5] [nM],Activity [6],Activity [7],Activity [8],Activity [9]
Cc1cc(COc2ccc(S(=O)(=O)N(C)C3(C(=O)NO)CN(C(=O)CC(C)C)C3)cc2)c2ccccc2n1,Non-Toxic,Non-Toxic,Non-Toxic,0.003,1300,Non-Toxic,,,
Cc1cc(COc2ccc(S(=O)(=O)N(C)C3(C(=O)NO)CN(C(=O)C(C)C)C3)cc2)c2ccccc2n1,Non-Toxic,Non-Toxic,Non-Toxic,0.019,950,Non-Toxic,Active,Active,Dose-dependent effect
